Tests used:
Assay type in all cases: functional, cell-based
P388 = experiment: Compound was evaluated for the cytotoxicity against P-388 tumor cell line after 3 days of incubation; conditions: Mus musculus, P388, 72 h
HT-29 = experiment: Compound was evaluated for the cytotoxicity against HT-29 tumor cell line after 3 days of incubation; conditions: Homo sapiens, HT-29, 72 h
SK-MEL-28 = experiment: Compound was evaluated for the cytotoxicity against MEL-28 tumor cell line after 3 days of incubation; conditions: Homo sapiens, SK-MEL-28, 72 h
A549 = experiment: Compound was evaluated for the cytotoxicity against A-549 tumor cell line after 3 days of incubation; conditions: Homo sapiens, A549, 72 h

Structure (SMILES) | IC50 (P388) [µM] | IC50 (HT-29) [µM] | IC50 (SK-MEL-28) [µM] | IC50 (A549) [µM]
COc1cc([C@H]2C[C@](O)(C(C)=O)C[C@H]3C(=O)c4c(c(O)c5ccccc5c4O)C(=O)[C@@H]23)cc(OC)c1OC | 5 | 5 | 5 | 5
COc1cc([C@H]2C[C@](O)(C(C)=O)Cc3c(O)c4c(c(O)c32)C(=O)c2ccccc2C4=O)cc(OC)c1OC | > 10 | > 10 | > 10 | > 10
C#C[C@@]1(O)C[C@H](c2cc(OC)c(OC)c(OC)c2)[C@@H]2C(=O)c3c(c(O)c4ccccc4c3O)C(=O)[C@@H]2C1 | 0.5 | 0.5 | 0.5 | 0.5
COc1cccc2c1C(=O)c1c(O)c3c(c(O)c1C2=O)C[C@@](O)(C(=O)CO)C[C@@H]3O[C@H]1C[C@H](N)[C@H](O)[C@H](C)O1 [DOXORUBICIN] | 0.02 | 0.02 | 0.02 | 0.02
C#C[C@]1(O)Cc2c(O)c3c(c(O)c2[C@@H](c2cc(OC)c(OC)c(OC)c2)C1)C(=O)c1ccccc1C3=O | > 10 | > 10 | > 10 | > 10
COc1cc([C@H]2CC(=O)C[C@H]3C(=O)c4c(c(O)c5ccccc5c4O)C(=O)[C@@H]23)cc(OC)c1OC | 5 | 5 | 5 | 5

From ChEMBL document CHEMBL1149938, “New 7-aryl analogues of anthracyclines: Synthesis and cytotoxic activity of ()-7-(3,4,5-trimethoxyphenyl)-7-deoxyidarubicinone” (Bioorg Med Chem Lett, 1997)
